Results on 2 compounds are retold here after paper PMC9295122, “Sialic Acid Derivatives Inhibit SiaT Transporters and Delay Bacterial Growth” (ACS Chemical Biology, 2022).

Entries after “also recorded” stand apart in the source; their conditions may differ.

The subject of assay [1] is P. mirabilis HI4320. The assay is described as follows: Growth in carbon-limited MM with inhibitor only, P. mirabilis. Conditions: MM with sodium citrate, compound 0.5 mM. It counts as cell-based, Proteus mirabilis. As for the experimental part:
We first addressed whether these bacteria were able to catabolize the inhibitors and potentially use them as a carbon source for growth. Each strain was grown in carbon-limited defined minimal media (MM), without any carbon source other than sodium citrate for P. mirabilis and casamino acids for S. aureus, and supplemented with 3e and 3f. […] With these promising results, bacterial growth assays were performed in MM supplemented with Neu5Ac at a concentration of 3.2 mM and with 0.5 mM of compounds 3e and 3f (Figure 6a,b). The lag phase duration was determined as the time for the initial population density to increase twofold (see the horizontal dashed lines in Figure 6a,b). The effects were significant in the case of S. aureus, where a delayed growth of 4.4 and 9.4 h (P < 0.001) for compounds 3e and 3f, respectively, was observed. In the case of P. mirabilis, compound 3e indicated a delay in growth (3 h, P = 0.06), while no effect was recorded for compound 3f.
Figure S4. S. aureus COL (A) and P. mirabilis HI4320 (B) grown in defined carbon-limited minimal media (dotted line), with the addition of compound 3e (0.5 mM, solid line) or compound 3f (0.5 mM, dashed line). Average values of two biological replicates (n=2) each including two technical replicates are presented.
(1 picture or pasted object on this page, not shown here)

The subject of assay [2] is E. coli JW3193 ΔNanT expressing SaSiaT. The assay is described as follows: Growth of E. coli JW3193 ΔNanT expressing SaSiaT. It counts as cell-based, Escherichia coli. Conditions: for effect on growth on sialic acid: 0.5 mM sialic acid + 1 mM inhibitor; for growth with inhibitor as only carbon source: 1 mM inhibitor. From the text:
To further investigate bacterial growth inhibition, we employed a model system of E. coli JW3193 ΔNanT expressing the SaSiaT and PmSiaT transporters. We designed these experiments to test if compounds 3e and 3f could inhibit the Neu5Ac transport in vivo because, without an active sialic acid transporter, E. coli JW3193 ΔNanT cannot grow on Neu5Ac.[16],[21]
For the bacterial growth experiments, the pJ422-01 plasmid containing the relevant SiaT or NanT gene was transformed into the E. coli JW3193 ΔnanT strain.[21] Throughout the experiments, strains containing the pJ422-01 plasmid were grown in media supplemented with 25 μg/mL Zeocin. E. coli BW25113, empty E. coli JW3193, and E. coli JW3193 with pJ422-01 containing the NanT gene were also used as controls. Strains were initially plated out from glycerol stocks before a single colony was picked and grown overnight in low salt LB media at 37 °C, with shaking at 180 rpm. Overnight cultures were diluted to an OD600 of 0.05 using low salt LB [supplemented with 1 mM isopropyl β-D-1-thiogalactopyranoside (IPTG)], before they were incubated at 37 °C, with shaking at 250 rpm, until they reached an OD600 of 0.3. At this point, 5 mL of each culture was centrifuged at 6000g for 5 min at 25 °C. The supernatants were removed and the cell pellets were resuspended in 5 mL of M9 MM without glucose prior to being centrifuged again at 6000g for 5 min at 25 °C. This wash step was repeated twice more before cells were resuspended to an OD600 of 0.5 in M9 MM without glucose. A Corning Costar Flat Bottom 96 Well TC-treated microplate was set up with 180 μL of M9 MM containing 1 mM IPTG (for the pJ422-01 strains) and either 5 mM glucose, 0.5 mM sialic acid, and 0.5 mM sialic acid with 1 mM of either inhibitor, or 1 mM of either inhibitor as a carbon source. To the 180 μL of media, 20 μL of each culture were added to the plate (OD600 of 0.05), before it was loaded into a FLUOstar Omega microplate reader (BMG Labtech). Growth was recorded at 600 nm every 10 min at 37 °C, with shaking at 300 rpm. Growth curves represent the mean and standard deviation of measurement from triplicate measurements (glucose/no carbon source in duplicate).
Fig. S5. Growth of E. coli JW3193 ΔNanT expressing the SaSiaT and PmSiaT transporters from a plasmid and using various carbon sources and in the presence or absence of inhibitors, 3e and 3f. (A) SaSiaT is expressed from a plasmid in the E. coli strain JW3193 ΔNanT, where the native sialic acid transporter (NanT) is deleted. The strain grows normally when in media with glucose (black line). There is no growth in the absence of any carbon source (grey line). In the presence of sialic acid at 0.5 mM the strain grows to an OD of ~0.5 (red line), showing that the transporter is functional. There is no growth in the […]

As to `CC(=O)NC1C(OCc2cc(F)cc(F)c2)CC(O)(C(=O)O)OC1C(O)C(O)CO` (stereo not drawn) [Compound 3e], the “ability to catabolize compound (growth vs MM only)” value in assay [1] is “no ability to catabolize”. Moreover, in assay [2], the “effect on growth on sialic acid” value is listed as “no effect on growth; also recorded: neither inhibitor seemed to alter bacterial growth” and the “growth with inhibitor as only carbon source” value is given as “no growth”.
`CC(=O)NC1C(OCc2cc(Br)cc(Br)c2)CC(O)(C(=O)O)OC1C(O)C(O)CO` (stereo not drawn) [Compound 3f]: the “ability to catabolize compound (growth vs MM only)” value in assay [1] is reported as “no ability to catabolize”. In assay [2], the “effect on growth on sialic acid” value is recorded as “no effect on growth; also recorded: neither inhibitor seemed to alter bacterial growth” and the “growth with inhibitor as only carbon source” value is reported as “no growth”.
